Columns and labels:
Format in all cases: functional
HT-29 = assay: Growth inhibition of human HT-29 cells assessed as cell growth at 5X10'-9 M after 48 hrs by sulforhodamine B assay; conditions: HT-29, 48 h, read-out: Activity
[1] = Growth inhibition of human HCC2998 cells assessed as cell growth at 5X10'-9 M after 48 hrs by sulforhodamine B assay; conditions: HCC 2998, 48 h, read-out: Activity
LOX IMVI = assay: Growth inhibition of human LOXIMVI cells assessed as cell growth at 5X10'-5 M after 48 hrs by sulforhodamine B assay; conditions: read-out: Activity
SNB-75 [2] = assay: Growth inhibition of human SNB75 cells assessed as cell growth at 5X10'-5 M after 48 hrs by sulforhodamine B assay; conditions: SNB-75, 48 h, read-out: Activity
A549 [3] = assay: Growth inhibition of human A549/ATCC cells assessed as cell growth at 5X10'-5 M after 48 hrs by sulforhodamine B assay; conditions: A549, 48 h, read-out: Activity
HL-60(TB) [4] = assay: Growth inhibition of human HL-60(TB) cells assessed as cell growth at 5X10'-5 M after 48 hrs by sulforhodamine B assay; conditions: HL-60, 48 h, read-out: Activity
MDA-MB-231 = assay: Growth inhibition of human MDA-MB-231 cells assessed as cell growth at 5X10'-6 M after 48 hrs by sulforhodamine B assay; conditions: MDA-MB-231, 48 h, read-out: Activity
786-0 = assay: Growth inhibition of human 786-0 cells assessed as cell growth at 5X10'-6 M after 48 hrs by sulforhodamine B assay; conditions: 786-0, 48 h, read-out: Activity
UACC-257 = assay: Growth inhibition of human UACC257 cells assessed as cell growth at 5X10'-6 M after 48 hrs by sulforhodamine B assay; conditions: UACC-257, 48 h, read-out: Activity
SK-MEL-2 = assay: Growth inhibition of human SK-MEL-2 cells assessed as cell growth at 5X10'-6 M after 48 hrs by sulforhodamine B assay; conditions: SK-MEL-2, 48 h, read-out: Activity
NCI-H522 = assay: Growth inhibition of human NCI-H522 cells assessed as cell growth at 5X10'-9 M after 48 hrs by sulforhodamine B assay; conditions: NCI-H522, 48 h, read-out: Activity
NCI-H322M = assay: Growth inhibition of human NCI-H322M cells assessed as cell growth at 5X10'-9 M after 48 hrs by sulforhodamine B assay; conditions: read-out: Activity
HCT-116 = assay: Growth inhibition of human HCT116 cells assessed as cell growth at 5X10'-6 M after 48 hrs by sulforhodamine B assay; conditions: HCT-116, 48 h, read-out: Activity
UO-31 [5] = assay: Growth inhibition of human UO31 cells assessed as cell growth at 5X10'-7 M after 48 hrs by sulforhodamine B assay; conditions: UO-31, 48 h, read-out: Activity
RXF 393 = assay: Growth inhibition of human RXF393 cells assessed as cell growth at 5X10'-7 M after 48 hrs by sulforhodamine B assay; conditions: RXF 393, 48 h, read-out: Activity
OVCAR-5 [6] = assay: Growth inhibition of human OVCAR5 cells assessed as cell growth at 5X10'-7 M after 48 hrs by sulforhodamine B assay; conditions: OVCAR-5, 48 h, read-out: Activity
SK-MEL-28 = assay: Growth inhibition of human SK-MEL-28 cells assessed as cell growth at 5X10'-7 M after 48 hrs by sulforhodamine B assay; conditions: SK-MEL-28, 48 h, read-out: Activity
MDA-MB-435 = assay: Growth inhibition of human MDA-MB-435 cells assessed as cell growth at 5X10'-7 M after 48 hrs by sulforhodamine B assay; conditions: MDA-MB-435, 48 h, read-out: Activity
Malme-3M [7] = assay: Growth inhibition of human MALME-3M cells assessed as cell growth at 5X10'-7 M after 48 hrs by sulforhodamine B assay; conditions: read-out: Activity
U-251 = assay: Growth inhibition of human U251 cells assessed as cell growth at 5X10'-7 M after 48 hrs by sulforhodamine B assay; conditions: U-251, 48 h, read-out: Activity
HOP-92 = assay: Growth inhibition of human HOP92 cells assessed as cell growth at 5X10'-7 M after 48 hrs by sulforhodamine B assay; conditions: HOP-92, 48 h, read-out: Activity
K562 = assay: Growth inhibition of human K562 cells assessed as cell growth at 5X10'-7 M after 48 hrs by sulforhodamine B assay; conditions: K562, 48 h, read-out: Activity
BT-549 = assay: Growth inhibition of human BT549 cells assessed as cell growth at 5X10'-8 M after 48 hrs by sulforhodamine B assay; conditions: BT-549, 48 h, read-out: Activity
PC-3 = assay: Growth inhibition of human PC3 cells assessed as cell growth at 5X10'-8 M after 48 hrs by sulforhodamine B assay; conditions: PC-3, 48 h, read-out: Activity
OVCAR-8 [8] = assay: Growth inhibition of human OVCAR8 cells assessed as cell growth at 5X10'-8 M after 48 hrs by sulforhodamine B assay; conditions: OVCAR-8, 48 h, read-out: Activity
OVCAR-5 [9] = assay: Growth inhibition of human OVCAR5 cells assessed as cell growth at 5X10'-8 M after 48 hrs by sulforhodamine B assay; conditions: OVCAR-5, 48 h, read-out: Activity
SNB-75 [10] = assay: Growth inhibition of human SNB75 cells assessed as cell growth at 5X10'-8 M after 48 hrs by sulforhodamine B assay; conditions: SNB-75, 48 h, read-out: Activity
UO-31 [11] = assay: Growth inhibition of human UO31 cells assessed as cell growth at 5X10'-5 M after 48 hrs by sulforhodamine B assay; conditions: UO-31, 48 h, read-out: Activity
OVCAR-8 [12] = assay: Growth inhibition of human OVCAR8 cells assessed as cell growth at 5X10'-5 M after 48 hrs by sulforhodamine B assay; conditions: OVCAR-8, 48 h, read-out: Activity
HOP-62 = assay: Growth inhibition of human HOP62 cells assessed as cell growth at 5X10'-8 M after 48 hrs by sulforhodamine B assay; conditions: HOP-62, 48 h, read-out: Activity
A549 [13] = assay: Growth inhibition of human A549/ATCC cells assessed as cell growth at 5X10'-8 M after 48 hrs by sulforhodamine B assay; conditions: A549, 48 h, read-out: Activity
HL-60(TB) [14] = assay: Growth inhibition of human HL-60(TB) cells assessed as cell growth at 5X10'-8 M after 48 hrs by sulforhodamine B assay; conditions: HL-60, 48 h, read-out: Activity
MDA-MB-468 = assay: Growth inhibition of human MDA-MB-468 cells assessed as cell growth at 5X10'-9 M after 48 hrs by sulforhodamine B assay; conditions: MDA-MB-468, 48 h, read-out: Activity
SN12C = assay: Growth inhibition of human SN12C cells assessed as cell growth at 5X10'-9 M after 48 hrs by sulforhodamine B assay; conditions: read-out: Activity
IGROV-1 = assay: Growth inhibition of human IGROV1 cells assessed as cell growth at 5X10'-9 M after 48 hrs by sulforhodamine B assay; conditions: IGROV-1, 48 h, read-out: Activity
Malme-3M [15] = assay: Growth inhibition of human MALME-3M cells assessed as cell growth at 5X10'-9 M after 48 hrs by sulforhodamine B assay; conditions: read-out: Activity

For `COc1cc(-c2nn(-c3cccc(NC(=O)c4cccc(C(F)(F)F)c4)c3)cc2-c2ccncc2)ccc1Cl`, the growth at 0.005 µM (HT-29) was 96%, the growth at 0.005 µM [1] was 92% and the growth at 50 µM (LOX IMVI) was 5%. For the same compound, the growth at 50 µM (SNB-75 [2]) was 8%, the growth at 50 µM (A549 [3]) was 9% and the growth at 50 µM (HL-60(TB) [4]) was 5%. For the same compound, the growth at 5 µM (MDA-MB-231) was 9%, the growth at 5 µM (786-0) was 27% and the growth at 5 µM (UACC-257) was 56%. The growth at 5 µM (SK-MEL-2) was 8%, the growth at 0.005 µM (NCI-H522) was 95% and the growth at 0.005 µM (NCI-H322M) was 91%. The growth at 5 µM (HCT-116) was 12%, the growth at 0.5 µM (UO-31 [5]) was 62% and the growth at 0.5 µM (RXF 393) was 68%. For the same compound, the growth at 0.5 µM (OVCAR-5 [6]) was 85%, the growth at 0.5 µM (SK-MEL-28) was 87% and the growth at 0.5 µM (MDA-MB-435) was 69%. For the same compound, the growth at 0.5 µM (Malme-3M [7]) was 89%, the growth at 0.5 µM (U-251) was 88% and the growth at 0.5 µM (HOP-92) was 53%. It also gave a growth at 0.5 µM (K562) of 83%, a growth at 0.05 µM (BT-549) of 98% and a growth at 0.05 µM (PC-3) of 99%. For the same compound, the growth at 0.05 µM (OVCAR-8 [8]) was 99%, the growth at 0.05 µM (OVCAR-5 [9]) was 90% and the growth at 0.05 µM (SNB-75 [10]) was 89%. It also gave a growth at 50 µM (UO-31 [11]) of 19%, a growth at 50 µM (OVCAR-8 [12]) of 10% and a growth at 0.05 µM (HOP-62) of 97%. For the same compound, the growth at 0.05 µM (A549 [13]) was 98%, the growth at 0.05 µM (HL-60(TB) [14]) was 92% and the growth at 0.005 µM (MDA-MB-468) was 94%. For the same compound, the growth at 0.005 µM (SN12C) was 97%, the growth at 0.005 µM (IGROV-1) was 102% and the growth at 0.005 µM (Malme-3M [15]) was 95%.
`O=C(Nc1cccc(-n2cc(-c3ccncc3)c(-c3ccc(Cl)c(O)c3)n2)c1)Nc1cc(C(F)(F)F)cc(C(F)(F)F)c1` gave a growth at 0.005 µM (HT-29) of 110%, a growth at 0.005 µM [1] of 99% and a growth at 50 µM (LOX IMVI) of -95%. The growth at 50 µM (SNB-75 [2]) was -75%, the growth at 50 µM (A549 [3]) was -80% and the growth at 50 µM (HL-60(TB) [4]) was -4%. It also gave a growth at 5 µM (MDA-MB-231) of -68%, a growth at 5 µM (786-0) of -23% and a growth at 5 µM (UACC-257) of -35%. It also gave a growth at 5 µM (SK-MEL-2) of -28%, a growth at 0.005 µM (NCI-H522) of 101% and a growth at 0.005 µM (NCI-H322M) of 108%. The growth at 5 µM (HCT-116) was -87%, the growth at 0.5 µM (UO-31 [5]) was 62% and the growth at 0.5 µM (RXF 393) was 82%. It also gave a growth at 0.5 µM (OVCAR-5 [6]) of 83%, a growth at 0.5 µM (SK-MEL-28) of 84% and a growth at 0.5 µM (MDA-MB-435) of 79%. The growth at 0.5 µM (Malme-3M [7]) was 77%, the growth at 0.5 µM (U-251) was 49% and the growth at 0.5 µM (HOP-92) was 45%. The growth at 0.5 µM (K562) was 46%, the growth at 0.05 µM (BT-549) was 111% and the growth at 0.05 µM (PC-3) was 89%. The growth at 0.05 µM (OVCAR-8 [8]) was 93%, the growth at 0.05 µM (OVCAR-5 [9]) was 89% and the growth at 0.05 µM (SNB-75 [10]) was 86%. For the same compound, the growth at 50 µM (UO-31 [11]) was -86%, the growth at 50 µM (OVCAR-8 [12]) was -53% and the growth at 0.05 µM (HOP-62) was 97%. It also gave a growth at 0.05 µM (A549 [13]) of 94%, a growth at 0.05 µM (HL-60(TB) [14]) of 122% and a growth at 0.005 µM (MDA-MB-468) of 94%. It also gave a growth at 0.005 µM (SN12C) of 96%, a growth at 0.005 µM (IGROV-1) of 108% and a growth at 0.005 µM (Malme-3M [15]) of 107%.
For `O=C(Nc1cccc(-n2cc(-c3ccncc3)c(-c3ccc(Cl)c(O)c3)n2)c1)c1ccc(N2CCOCC2)c(C(F)(F)F)c1`, the growth at 0.005 µM (HT-29) was 101%, the growth at 0.005 µM [1] was 95% and the growth at 50 µM (LOX IMVI) was -53%. It also gave a growth at 50 µM (SNB-75 [2]) of 8%, a growth at 50 µM (A549 [3]) of 4% and a growth at 50 µM (HL-60(TB) [4]) of 4%. It also gave a growth at 5 µM (MDA-MB-231) of 8%, a growth at 5 µM (786-0) of 35% and a growth at 5 µM (UACC-257) of 57%. The growth at 5 µM (SK-MEL-2) was 34%, the growth at 0.005 µM (NCI-H522) was 93% and the growth at 0.005 µM (NCI-H322M) was 100%. The growth at 5 µM (HCT-116) was 35%, the growth at 0.5 µM (UO-31 [5]) was 112% and the growth at 0.5 µM (RXF 393) was 57%. For the same compound, the growth at 0.5 µM (OVCAR-5 [6]) was 98%, the growth at 0.5 µM (SK-MEL-28) was 91% and the growth at 0.5 µM (MDA-MB-435) was 85%. For the same compound, the growth at 0.5 µM (Malme-3M [7]) was 89%, the growth at 0.5 µM (U-251) was 94% and the growth at 0.5 µM (HOP-92) was 53%. It also gave a growth at 0.5 µM (K562) of 103%, a growth at 0.05 µM (BT-549) of 101% and a growth at 0.05 µM (PC-3) of 96%. The growth at 0.05 µM (OVCAR-8 [8]) was 106%, the growth at 0.05 µM (OVCAR-5 [9]) was 97% and the growth at 0.05 µM (SNB-75 [10]) was 88%. The growth at 50 µM (UO-31 [11]) was -5%, the growth at 50 µM (OVCAR-8 [12]) was 26% and the growth at 0.05 µM (HOP-62) was 101%. It also gave a growth at 0.05 µM (A549 [13]) of 101%, a growth at 0.05 µM (HL-60(TB) [14]) of 117% and a growth at 0.005 µM (MDA-MB-468) of 95%. It also gave a growth at 0.005 µM (SN12C) of 98%, a growth at 0.005 µM (IGROV-1) of 103% and a growth at 0.005 µM (Malme-3M [15]) of 88%.
